In PMC12668308, “A Novel Antimalarial Agent that Inhibits Protein Synthesis in Plasmodium falciparum” (Angewandte Chemie (International Ed. in English), 2025):
Read-outs that look alike come from different tables or passages of the source.

How the values were obtained:
[1] = system: P. falciparum NF54 strain; assay: [3H]-hypoxanthine incorporation assay, asexual blood stage; assay type: cell-based, Plasmodium falciparum
How it was run: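 Parasites in human RBC were exposed to a 6-step twofold compound dilution in hypoxanthine-free medium (final parasitemia 0.3%, haematocrit 1.25%) at 37 °C under 3% O2/4% CO2. After 48 h, [3H]-hypoxanthine (0.25 µCi/well) was added for 24 h and uptake measured by scintillation counting. IC50 came from four-parameter curve fitting.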

[2] = system: mRNA translation in NF54 trophozoite-stage parasites; assay: Surface sensing of translation (SUnSET) assay; assay type: cell-based, Plasmodium falciparum; settings: trophozoites 30–35 hpi; 31 at 3x, 50x, 100x IC50; 34 and pyrimethamine at 3x IC50
Description: To confirm the role of 31 as a translation inhibitor, the surface sensing of translation (SUnSET) assay was employed. This involves incubating the culture with a translation inhibitor, puromycin, a structural analogue of aminoacyl tRNA. Puromycin is incorporated in the nascent polypeptide chain and prevents further elongation. When puromcyin is used in sub‐lethal concentrations, incorporation of puromycin in neosynthesized protein correlates with the levels of mRNA translation (Figure 3c, lane2).^[ [27] ^] […] This trend was further confirmed by the quantified western blot signals (Figures 3d and S4C) that are consistent with the iSPP profiling results.
SUnSET: The SUnSET assay was done as described in. ^[27^]Tightly synchronized NF54 wild type parasites were treated with the compounds for 4h at 30-35 hpi (trophozoite stage). The following compounds and amounts used were: cycloheximide (3xIC50, 1,2 µM; Calbiochem), pyrimethamine (3xIC50, 21 nM; MedChemExpress), 34 (3xIC50, 12 µM), and 31 (3xIC50, 12 nM; 50xIC50, 200 nM; 100xIC50, 400 nM). Parasites were incubated with 1 µg mL^-1 (Sigma P8833) for 1 h at 37 °C and saponin lysis was performed.
Saponin lysis and Western blot: Saponin lysis was done on infected RBC at ~5% parasitemia to lyse erythrocytes. Parasite cultures were centrifuged at 1,200 g for 5 min at room temperature. Once the supernatant was discarded, 10 volumes of ice-cold 0.1% (w/v) saponin (Calbiochem 558255, dissolved in PBS, and filtered with 0,22) was added, incubated on ice for 10 min and centrifuged for 2,272 g for 15 min at 4 °C. […] The membrane was washed 3 times in PBS-T (3 min incubation in each washing step) and the signal was detected using the chemiluminescent substrate SuperSignal West Pico Plus (Thermo Scientific, REF 34580) and the imaging system Vilber Fusion FX7 Edge 17.10 SN. Quantification of Western blot signal was done by measuring the integrated density of each lane using ImageJ analysis software (version 1.54p). […]

[3] = Plasmodium falciparum, NF54, asexual blood stage, mean ± s.d., read-out: PfNF54 IC50 ± s.d.

Row | SMILES | IC50 ratio relative to NF54 strain ([1]; NF54) | IC50 ([1]; Plasmodium falciparum, NF54, 72 h, Table S2, NF54 sensitive strain, 72-h assay, mean±s.d., read-out: IC50) | IC50 [1, 3] | IC50 ([1]; asexual blood stage, mean ± s.d., read-out: PfNF54 IC50 ± s.d.) | mRNA translation (puromycin incorporation) [2] | fold lower activity (control compound vs 31) ([1]; PfNF54 IC50)
1 | CN1CCN(Cc2ccc(O)c(NC(=O)c3cccc(Oc4cc(C(F)(F)F)ccn4)c3)c2)CC1 [Compound 31, N-(2-hydroxy-5-((4-methylpiperazin-1-yl)methyl)phenyl)-3-((4-(trifluoromethyl)pyridin-2-yl)oxy)benzamide] | 1.00 | 1.8 ± 0.3 nM | < 5 nM | 3.9 nM | concentration‐dependent reduction in translation | 
2 | O=C(Nc1cc(CN2CCOCC2)ccc1F)c1cccc(Oc2cc(C(F)(F)F)ccn2)c1 [Compound 34, N-(2-Fluoro-5-(morpholinomethyl)phenyl)-3-((4-(trifluoromethyl)pyridin-2-yl)oxy)benzamide] |  |  | 3730 nM |  | did not reduce mRNA translation | 1000 fold
